The subject of assay [1] is EZH2. Nature of the assay: Immunoblot of EZH2 and RORα protein levels with DZNep. In kind it is cell-based. The settings on record: MCF7 cells, DZNep 1 μM, 24 hr, immunoblot (FIG. 19). From the text:
(§1) In order to determine whether the ubiquitin-proteasome pathway is responsible for RORα degradation and to further examine whether the introduction of EZH2 augments RORα ubiquitination by allowing increased RORα methylation, we performed an RORα ubiquitination assay with EZH2 in the presence of a 26S proteasome inhibitor, MG132. […] To further examine whether K38 methylation directly affects RORα ubiquitination, we performed a ubiquitination assay for RORα WT and RORα K38A in the presence of MG132. Indeed, RORα K38A mutation led to a marked reduction in RORα ubiquitination compared to RORα WT (FIG. 18). Next, we examined whether an EZH2 small molecule inhibitor, exemplified by DZNep, rescues the EZH2-mediated degradation of RORα.

Another assay has as its system MCF7 breast cancer cells. Nature of the assay: Cell transformation assay (anchorage-independent growth in soft agar). The assay is classed as cell-based. As to conditions: 3 weeks (FIG. 60). On the set-up: dose or concentration left out as unconfirmed. As for the experimental part:
Representative images are shown for each group. Immunoblot analysis was performed to detect each protein level. […]

The next assay has as its system RORα ubiquitination. Nature of the assay: RORα ubiquitination assay with DZNep. In kind it is cell-based. The settings on record: HEK-293T cells, DZNep 1 μM, 24 hr (FIG. 20). As for the experimental part:
Cells were transfected with combinations of plasmids including HisMax-ubiquitin. After incubation for 48 hrs, cells were treated with MG132, lysed in buffer A (6 M guanidinium-HCl, 0.1 M Na2HPO4/NaH2PO4, 0.01 M Tris-Cl [pH 8.0], 5 mM imidazole, and 10 mM β-mercaptoethanol), and incubated with Ni^2+-NTA beads (Qiagen) for 4 hrs at room temperature. The beads were sequentially washed with buffer A, buffer B (8 M urea, 0.1 M Na2PO4/NaH2PO4, 0.01 M Tris-Cl [pH 8.0], and 10 mM β-mercaptoethanol), and buffer C (8 M urea, 0.1 M Na2PO4/NaH2PO4, 0.01 M Tris-Cl [pH 6.3], and 10 mM β-mercaptoethanol). Bound proteins were eluted with buffer D (200 mM imidazole, 0.15 M Tris-Cl [pH 6.7], 30% glycerol, 0.72 M β-mercaptoethanol, and 5% SDS), and subject to immunoblot analysis.
as §1, with “Next, we examined whether an EZH2 small molecule inhibitor, exemplified by DZNep, rescues the EZH2-mediated degradation of RORα.” left out

The target in assay [2] is T1, EZH2 (Homo sapiens, UniProt Q15910).
T1 construct: GST
Nature of the assay: In vitro methyltransferase (HMTase) assay with mass spectrometry. The assay is classed as biochemical. As to conditions: 100 μM synthetic peptide, GST-EZH2, LC-MS (FIG. 4). As for the experimental part:
Small quantities (100 μM) of synthetic peptides (RORα WT) were used as substrates in the HMTase assay with EZH2 enzyme; the reaction was stopped by 10% TCA precipitation for 10 min at 4° C. After removing the precipitates by centrifugation, the supernatants were retrieved and methylated peptides in the supernatants were analyzed by LC-MS. The eluted peptides were separated on a Luna column (C18 PepMap 100, 150×1 mm 5 micron) with a linear gradient (A: 100% H2O, 0.1% formic acid, B: 100% ACN, 0.1% formic acid) at a flow rate of […]. Typically, 2 μL of sample was injected. Mass spectrometry was performed on a linear ion trap mass spectrometer (LCQ DECA XP, Thermo Finningan) coupled to a nano-LC system (NANOSPACE SI-2, Shiseido). The MS method consisted of a cycle combining one full MS scan (Mass range: 160-2000 m/z).
The association of EZH2 with RORα at endogenous levels was confirmed by co-immunoprecipitation analysis (FIG. 3). To assess whether RORα is methylated by EZH2 and to determine the methylation status of RORα, peptides bearing amino acids 31-40 of RORα (LNQESARKSE) were in vitro methylated by EZH2 and analyzed by mass spectrometry. […]

The results in this text go back to US9783575B2, “Methyl degron peptide and methods of controlling protein lifespan” (Seoul National University (SNU) R&D Foundation, priority 2012, dated 2017).

T1 sequence (Q15910 whole entry, species assumed): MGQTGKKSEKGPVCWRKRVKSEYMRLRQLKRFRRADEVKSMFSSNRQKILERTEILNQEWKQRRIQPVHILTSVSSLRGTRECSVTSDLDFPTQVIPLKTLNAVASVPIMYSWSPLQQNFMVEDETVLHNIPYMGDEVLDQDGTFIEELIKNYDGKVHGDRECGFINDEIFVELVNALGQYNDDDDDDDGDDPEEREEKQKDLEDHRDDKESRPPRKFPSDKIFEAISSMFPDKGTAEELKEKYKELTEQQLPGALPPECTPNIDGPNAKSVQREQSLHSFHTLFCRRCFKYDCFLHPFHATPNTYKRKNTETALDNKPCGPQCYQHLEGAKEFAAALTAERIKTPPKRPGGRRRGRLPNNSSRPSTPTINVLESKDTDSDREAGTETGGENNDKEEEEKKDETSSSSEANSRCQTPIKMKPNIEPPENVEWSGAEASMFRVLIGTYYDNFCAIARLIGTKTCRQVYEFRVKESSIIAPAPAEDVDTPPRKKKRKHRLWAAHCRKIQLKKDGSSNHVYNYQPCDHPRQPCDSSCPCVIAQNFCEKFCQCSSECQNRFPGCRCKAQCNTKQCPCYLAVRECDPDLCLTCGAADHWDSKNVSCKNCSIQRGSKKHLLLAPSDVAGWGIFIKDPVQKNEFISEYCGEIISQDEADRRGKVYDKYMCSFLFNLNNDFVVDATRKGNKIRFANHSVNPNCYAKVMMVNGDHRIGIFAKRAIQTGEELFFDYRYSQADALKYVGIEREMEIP

Regarding `Nc1nccc2c1ncn2C1C=C(CO)C(O)C1O` (centres unmarked) [DZNep], in the assay on EZH2 [1], the EZH2 protein levels entry is listed as “reduction of EZH2 protein levels” and the RORα protein levels entry is “increases in RORα protein levels”. The “cellular transformation (colony formation in soft agar)” value in the assay on MCF7 breast cancer cells was “inhibitory effect on cellular transformation”. Besides, in the assay with RORα ubiquitination, the RORα ubiquitination levels entry is recorded as “decreased”.

Turning to “LNQESARKSE [RORα wild-type (WT) peptide, peptide bearing amino acids 31-40 of RORα]”, the “methylation of peptide by EZH2” value with EZH2 [2] is reported as “addition of one methyl group to the K38 site”.
